Test results: patent publication US20200181104A1, “SSAO INHIBITORS AND USES THEREOF” (METACRINE, INC., priority 2018, published 2020)
Where a name gives a salt, the structure may show the parent alone.

target: T1, Recombinant Human SSAO/VAP-1/AOC3 (Homo sapiens, UniProt Q16853); test: Human Semicarbazide-Sensitive Amine Oxidase (SSAO) Assay; assay type: biochemical; details: recombinant enzyme, 30 minutes preincubation at 37° C., benzylamine substrate, Amplex Ultra Red/HRP fluorescence
T1 construct: purchased R&D systems 3957-AO
T1 sequence (Q16853 1-763): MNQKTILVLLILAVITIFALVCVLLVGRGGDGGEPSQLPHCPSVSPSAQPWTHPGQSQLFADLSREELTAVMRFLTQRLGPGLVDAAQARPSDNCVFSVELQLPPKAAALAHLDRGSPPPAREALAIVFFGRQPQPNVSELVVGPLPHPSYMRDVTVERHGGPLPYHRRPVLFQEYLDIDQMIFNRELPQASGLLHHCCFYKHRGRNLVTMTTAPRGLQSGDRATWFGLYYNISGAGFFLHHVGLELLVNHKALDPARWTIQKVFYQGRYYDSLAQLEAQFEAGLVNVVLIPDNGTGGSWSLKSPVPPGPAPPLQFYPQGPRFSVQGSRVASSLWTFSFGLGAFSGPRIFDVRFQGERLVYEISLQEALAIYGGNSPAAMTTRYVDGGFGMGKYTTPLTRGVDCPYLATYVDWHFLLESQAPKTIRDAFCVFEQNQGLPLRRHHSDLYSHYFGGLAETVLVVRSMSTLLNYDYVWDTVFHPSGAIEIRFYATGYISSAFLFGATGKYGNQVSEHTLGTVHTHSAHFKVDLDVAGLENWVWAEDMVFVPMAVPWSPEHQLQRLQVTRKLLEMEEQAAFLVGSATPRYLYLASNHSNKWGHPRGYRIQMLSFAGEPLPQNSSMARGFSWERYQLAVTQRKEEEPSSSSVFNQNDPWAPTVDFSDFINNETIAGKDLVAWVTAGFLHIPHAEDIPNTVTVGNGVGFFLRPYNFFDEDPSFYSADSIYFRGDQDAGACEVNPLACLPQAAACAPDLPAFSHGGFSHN
Procedure, shortened: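 IC50 from kinetic Amplex Ultra Red/HRP fluorescence (ex 544, em 590 nm, 30-120 min) after benzylamine addition. Beforehand, 6-10 compound dilutions were preincubated 30 min at 37 °C with recombinant human SSAO in 50 mM HEPES (enzyme working concentration 2.5 μg/ml).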

Row | Structure (SMILES) | IC50
1 | CNC(=O)C12CCCC(c3ccc(OC/C(=C/F)CN)cc3)(CC1)C2 (centres unmarked) [Compound 5, 5-(4-(((E)-2-(Aminomethyl)-3-fluoroallyl)oxy)phenyl)-N-methylbicyclo[3.2.1]octane-1-carboxamide Hydrochloride] | ≤ 0.01 µM
2 | NC/C(=C\F)COc1ccc(C23CCCC(C(=O)NC4CCOCC4)(CC2)C3)cc1 (centres unmarked) [Compound 5.01, 5-(4-(((E)-2-(Aminomethyl)-3-fluoroallyl)oxy)phenyl)-N-(tetrahydro-2H-pyran-4-yl)bicyclo[3.2.1]octane-1-carboxamide Hydrochloride] | ≤ 0.01 µM
3 | NC/C(=C\F)COc1ccc(C23CCC(NC(=O)C4CCOCC4)(CC2)CC3)cc1 [Compound 7, (E)-N-(4-(4-((2-(Aminomethyl)-3-fluoroallyl)oxy)phenyl)bicyclo[2.2.2]octan-1-yl)tetrahydro-2H-pyran-4-carboxamide Hydrochloride] | ≤ 0.01 µM
4 | CNC(=O)COC12CCC(c3ccc(OC/C(=C/F)CN)cc3)(CC1)CC2 [Compound 8, (E)-2-((4-(4-((2-(aminomethyl)-3-fluoroallyl)oxy)phenyl)bicyclo[2.2.2]octan-1-yl)oxy)-N-methylacetamide] | ≤ 0.01 µM
5 | NC/C(=C\F)CNc1ccc(C23CCC(C(=O)NC4CCOCC4)(CC2)CC3)cc1 [Compound 9, (E)-4-(4-((2-(Aminomethyl)-3-fluoroallyl)amino)phenyl)-N-(tetrahydro-2H-pyran-4-yl)bicyclo[2.2.2]octane-1-carboxamide Hydrochloride] | 0.01 to 0.1 µM
6 | CNC(=O)C12CCCC(c3ccc(OC/C(=C/F)CN)cc3)(CC1)CC2 [Compound 10, (E)-5-(4-((2-(Aminomethyl)-3-fluoroallyl)oxy)phenyl)-N-methylbicyclo[3.2.2]nonane-1-carboxamide Hydrochloride] | ≤ 0.01 µM
7 | Cc1nnc(C23CCC(c4ccc(OC/C(=C/F)CN)cc4)(CC2)CC3)o1 [Compound 11, (2E)-3-fluoro-2-({4-[4-(5-methyl(1,3,4-oxadiazol-2-yl))bicyclo[2.2.2]octyl]phenoxy}methyl)prop-2-enylamine] | ≤ 0.01 µM

Continued, values first:

Row | IC50 | Structure (SMILES)
8 | ≤ 0.01 µM | CC(C)NC(=O)C12CC3CC(C1)CC(c1ccc(OC/C(=C/F)CN)cc1)(C3)C2 [Compound 6.04, (E)-3-(4-((2-(aminomethyl)-3-fluoroallyl)oxy)phenyl)-N-isopropyladamantane-1-carboxamide]
9 | ≤ 0.01 µM | NC/C(=C\F)COc1ccc(C23CCC(NC(=O)CCO)(CC2)CC3)cc1 [Compound 7.01, (E)-N-(4-(4-((2-(aminomethyl)-3-fluoroallyl)oxy)phenyl)bicyclo [2.2.2]octan-1-yl)-3-hydroxypropanamide]
10 | ≤ 0.01 µM | COCCC(=O)NC12CCC(c3ccc(OC/C(=C/F)CN)cc3)(CC1)CC2 [Compound 7.02, (E)-N-(4-(4-((2-(aminomethyl)-3-fluoroallyl)oxy)phenyl)bicyclo [2.2.2]octan-1-yl)-3-methoxypropanamide]
11 | ≤ 0.01 µM | NC/C(=C\F)COc1ccc(C23CCC(NS(=O)(=O)C4CC4)(CC2)CC3)cc1 [Compound 7.03, (E)-N-(4-(4-((2-(aminomethyl)-3-fluoroallyl)oxy)phenyl)bicyclo[2.2.2]octan-1-yl)cyclopropanesulfonamide]
12 | ≤ 0.01 µM | NC/C(=C\F)COc1ccc(C23CCC(OCC(=O)NC4CCOCC4)(CC2)CC3)cc1 [Compound 8.01, (E)-2-((4-(4-((2-(aminomethyl)-3-fluoroallyl)oxy)phenyl)bicyclo [2.2.2]octan-1-yl)oxy)-N-(tetrahydro-2H-pyran-4-yl)acetamide]
13 | ≤ 0.01 µM | NC/C(=C\F)COc1ccc(C23CCC(OCC(=O)N4CCOCC4)(CC2)CC3)cc1 [Compound 8.02, (E)-2-((4-(4-((2-(aminomethyl)-3-fluoroallyl)oxy)phenyl)bicyclo [2.2.2]octan-1-yl)oxy)-1-morpholinoethanone]
14 | ≤ 0.01 µM | COCCOC12CCC(c3ccc(OC/C(=C/F)CN)cc3)(CC1)CC2 [Compound 8.03, (E)-3-Fluoro-2-((4-(4-(2-methoxyethoxy)bicyclo[2.2.2]octan-1-yl)phenoxy)methyl)prop-2-en-1-amine Hydrochloride]
15 | ≤ 0.01 µM | NC/C(=C\F)COc1ccc(C23CCCC(C(=O)NC4CCOCC4)(CC2)CC3)cc1 [Compound 10.01, (E)-5-(4-((2-(Aminomethyl)-3-fluoroallyl)oxy)phenyl)-N-(tetrahydro-2H-pyran-4-yl)bicyclo[3.2.2]nonane-1-carboxamide Hydrochloride]
16 | ≤ 0.01 µM | NC/C(=C\F)COc1ccc(C23CCC(c4nnc(C5CC5)o4)(CC2)CC3)cc1 [Compound 11.01, (E)-2-((4-(4-(5-cyclopropyl-1,3,4-oxadiazol-2-yl)bicyclo[2.2.2]octan-1-yl)phenoxy)methyl)-3-fluoroprop-2-en-1-amine]
17 | ≤ 0.01 µM | NC/C(=C\F)COc1ccc(C23CCC(c4nnc(C5CCOCC5)o4)(CC2)CC3)cc1 [Compound 11.02, (E)-3-fluoro-2-((4-(4-(5-(tetrahydro-2H-pyran-4-yl)-1,3,4-oxadiazol-2-yl)bicyclo[2.2.2]octan-1-yl)phenoxy)methyl)prop-2-en-1-amine]
